Reference: patent publication US20140190225A1, “ALTERING ANIMAL WASTE COMPOSITION” (AgResearch Limited, priority 2004, published 2014)

Legend:
[1] = system: nitrification of urine/urea-N in soil; assay: Soil incubation with urine from abomasally infused sheep: nitrification; settings: urine from sheep with abomasal infusion, DCD 15 g/day or 4 MP 1 g/day; soil incubated at 20° C.
Description: (§1) This was determined by firstly measuring the urea concentration in urine samples and adjusting the urine volume (or in a few samples with low concentrations, urea was added) so that the same rate of urea-N was added to soil (100 g) in plastic bags. The soil was a Horotiu silt loam derived from volcanic ash taken from a pastoral site which had been ungrazed for over 6 months so that no residual animal urine was present.
(§2) The urine-treated soil samples were incubated at 20° C. and sub-samples were removed at regular intervals over time for analysis of ammonium and nitrate in 2M KCl extracts using standard methods. The level of inhibition of nitrification was evident from less nitrate formation (FIG. 4B; P<0.001 at all incubation times) and higher ammonium levels (FIG. 4A; P<0.001 at all incubation times). Inhibition of nitrification was higher for DCD than for 4 MP (P<0.01), with an average reduction in nitrate production relative to the control of 96 and 51%, respectively (FIG. 4C). This difference may have been influenced by the rate of inhibitor used.

[2] = Tolerability of abomasal infusion in sheep; format: in vivo; settings: DCD 15 g/day, 4 MP 1 g/day, Agrotain 80 g/day
Description: (§3) Sheep were then transferred indoors to metabolism crates.

[3] = system: nitrous oxide emissions; assay: Lysimeter study: nitrous oxide emission
Description: (§4) Undisturbed soil lysimeters (30 cm diameter×50 cm depth) were collected from a pastoral site near Lake Taupo which had been under a cutting regime with no grazing animals for over 18 months. The soil was a Taupo sandy loam (yellow brown pumice or allophanic soil). A gap (c. 1 cm) between the side of the soil cores and the PVC lysimeter housing was filled with Vaseline to stop possible edge-flow of water or urine. The lysimeters were transferred to a lysimeter facility (near Hamilton, New Zealand) where they were buried in soil so that the soil surface in the lysimeter was at ground level. However, the lysimeter casing extended about 4 cm above the soil surface to stop any lateral surface loss.
There were five replicate lysimeters with the following treatments included: a control, urine, urine+DCD, and urine+4 MP. Urine was collected from Jersey dairy cows, stored at 4° C. and applied to the lysimeters within 4 days. The urine solution was applied at 10 L/m^2 giving the equivalent of 800 kg N/ha (similar to that for a cow urine patch). For the DCD and 4 MP treatments, the inhibitor compounds were dissolved in the urine prior to application to represent urine excreted from inhibitor-administered animals. Inputs in these treatments were equivalent to 1.5 g DCD/m^2 and 0.1 g 4 MP/m^2.
Lysimeters were left to stabilise for several weeks after installation in the facility. Treatments were applied in May 2004. Pasture on the lysimeters was trimmed prior to treatment application and was regularly cut at heights and intervals similar to that under dairy cow grazing.
Nitrous oxide (N2O) emission from the main lysimeters was measured using a standard closed chamber method. Chambers were placed on the lysimeters at regular intervals during the study for periods of one hour at around midday. Gas samples were collected at 0, 30 and 60 minutes from the headspace of the chambers for N2O analysis by gas chromatography. […] Cumulative N2O emissions over the measurement period averaged 1.2 and 0.5 kg N/ha for the urine and urine+DCD treatments, giving a 57% reduction from DCD.

[4] = system: nitrate leaching; assay: Lysimeter study: nitrate leaching; settings: inhibitor added to cow urine, 1.5 g DCD/m^2 or 0.1 g 4 MP/m^2; 104 days
Description: as §4
There were five replicate lysimeters with the following treatments included: a control, urine, urine+DCD, and urine+4 MP. Urine was collected from Jersey dairy cows, stored at 4° C. and applied to the lysimeters within 4 days. The urine solution was applied at 10 L/m^2 giving the equivalent of 800 kg N/ha (similar to that for a cow urine patch). […]
Nitrate leaching from lysimeters was measured by collection of leachate draining from the base of each lysimeter. This drainage water was collected at regular intervals and analysed for nitrate concentration. […]

[5] = DCD in urine of sheep, abomasal infusion (HPLC); format: in vivo
Description: as §3
Infusion of treatments continued for 4 days, after which there was an 11 day non-treatment clearance/rest period before repeating this phase. Sheep allocation to treatments changed over each period in a statistical cross-over design (defined by statisticians) so that 11 sheep had been subjected to each of 3 treatments (control, DCD and 4 MP), and so that within- and between-sheep variability could be evaluated.
Presence of DCD in urine samples was determined using high-performance liquid chromotography. […] There was some variability between sheep in DCD concentrations in urine, but this reflected differences in urination volumes (FIG. 3) so that there was much less difference in the amount of DCD excreted per urination. Concentrations of DCD in urine declined to negligible levels within 7 days after ceasing infusion (FIG. 2).

[6] = DCD in urine of sheep, ruminal infusion (HPLC); format: in vivo
Description: (§5) The 12 sheep were randomly allocated to one of 2 treatments; water infusion (Control) or DCD at 15 g/day (DCD group). Experimental methodology was the same as for the abomasal infusion study in that there was a 4 day period of continuous infusion followed by an 11 day non-treatment clearance/rest period.
Presence of DCD in urine samples was determined using high-performance liquid chromotography. […] However, concentrations of DCD in urine were lower at day 1 of infusion than days 2-4, as expected because of time for rumen processing. Levels declined after ceasing infusion and were negligible within 7 days (FIG. 5).

[7] = system: nitrification of urine/urea-N in soil; assay: Soil incubation with urine from ruminally infused sheep: nitrification; settings: urine from sheep with ruminal infusion of DCD 15 g/day
Description: as §1, §2, §5

[8] = Excretion efficiency of DCD in non-lactating dairy cows (metabolism stall study); format: in vivo
Description: The efficiency of excretion of DCD in urine relative to DCD administered to animals was determined in a metabolism stall study involving five non-lactating dairy cows. The study was conducted on the DairyNZ Lye Farm, near Hamilton, New Zealand.
Each cow was fed a diet of pasture silage.
The five cows were administered DCD via addition to the pasture silage feed at a dosage rate was 30 g/animal/day.
Animal waste collectors were fitted to animals and configured to collect urine and dung separately. The animal waste was analysed for DCD concentration using known analysis techniques.

[9] = system: nitrification inhibition in soil; assay: Laboratory soil incubation with urine from DCD-treated cows
Description: A laboratory incubation experiment was set up to confirm that the DCD contained in urine from DCD-treated cows retained its nitrification inhibition properties after application to soil. Urine from DCD-treated cows was compared to urine from non-treated cows spike with varying rates of DCD.

[10] = DCD in urine of dairy heifers drenched daily; format: in vivo; settings: daily drench
Description: In addition, in a separate study, dairy heifers were drenched daily with a DCD solution.

[11] = Freezing of urine: presence and activity of inhibitors; format: physicochemical; settings: urine frozen at −20° C.
Description: During each infusion period the sheep were housed in metabolism crates to allow daily collection of urine and faeces samples. Single urination event samples were also collected from each sheep every day and were frozen for subsequent analysis of inhibitor content and for inhibitory activity in soil.

[12] = Excretion efficiency of DCD in sheep; format: in vivo
[13] = system: conversion of nitrogen containing compounds; settings: cited from earlier work
[14] = cows, 30 g/animal/day in feed, at equilibrium

With Cc1cn[nH]c1 [4 MP, 4 methylpyrazole] the “average reduction in nitrate production relative to the control” value [1] was 51%, the “effect of infusion on sheep (live-weight changes, body condition, general bodily function, feed intake)” value [2] was “no adverse effect” and the “effect on nitrous oxide emissions” value ([3]; inhibitor added to urine, lysimeters) was “reducing”. For the same molecule, the “reduction in cumulative nitrate leaching versus urine treatment” value [4] was 71%.
In the case of N#CN=C(N)N [DCD, dicyandiamide], the “DCD concentration in urine during the infusion period” value ([5]; DCD 15 g/day abomasal infusion, versus control, P<0.001) is reported as “highly significant increase”, the “time for DCD in urine to decline to negligible levels after ceasing infusion” value ([5]; abomasal infusion 15 g/day) is reported as no more than 7 days and the “average reduction in nitrate production relative to the control” value [1] is reported as 96%. The “effect of infusion on sheep (live-weight changes, body condition, general bodily function, feed intake)” value [2] was “no adverse effect”, the “DCD excretion in urine over the infusion period” value ([6]; DCD 15 g/day ruminal infusion, 4 days) was “high levels of DCD were absorbed and excreted in urine in an unaltered form” and the “time for DCD in urine to become negligible after ceasing infusion” value ([6]; ruminal infusion 15 g/day) was no more than 7 days. For the same molecule, the “average reduction in nitrate production” value [7] was 81%, the “reduction in cumulative N2O emissions” value ([3]; urine+DCD versus urine) was 57% and the “cumulative N2O emissions over the measurement period” value ([3]; urine+DCD, 1.5 g DCD/m^2, urine alone 1.2) was 0.5 kg N/ha. The “reduction in cumulative nitrate leaching versus urine treatment” value [4] was 56%, the “efficiency of excretion in urine” value ([8]; cattle such as beef or dairy) was 80-81% and the “DCD administered recovered in dung” value [8, 14] was 10%. The “DCD administered recovered in urine” value [8, 14] was 81%, the “DCD in urine from DCD-treated cows, measured rate equivalent” value ([9]; FIG. 11 legend) was 51 kg DCD/ha and the “nitrification inhibition in soil of DCD in urine from treated cows versus urine spiked with an equivalent level of DCD” value ([9]; laboratory incubation) was “same level of nitrification inhibition”. The “DCD concentration in urine over a 90 day treatment period” value [10] was “remained relatively constant”, the “effect of freezing urine on presence or activity” value [11] was “no effect” and the “efficiency of transfer to urine” value [12] was “approximately 86%”. For the same molecule, the “effectiveness at a rate of approximately 5 kg/ha” value ([13]; DCD rate on land approximately 5 kg/ha) was “relatively ineffective” and the “improvement at rates in excess of 10 kg/ha compared to 10 kg/ha” value ([13]; application to land, most soils, rainfall below about 1500 mm/year) was “negligible improvements”.
